Laboratory results from ChEMBL document CHEMBL3044778, “Lethal and sublethal effects of buprofezin and imidacloprid on the whitefly parasitoid Encarsia inaron (Hymenoptera: Aphelinidae)” (2012).
Values after ≈ are worked out from the molar mass of the structure shown. Active and inactive are the calls of the source. The calls are words filed in the database; no cut-off is given here.

How the values were obtained:
[1] = system: Encarsia inaron; experiment: Insecticidal activity against Encarsia inaron treated at larval stages assessed as intrinsic rate of increase at 31.25 ppm; assay type: functional, organism-based; settings: Larval stage
[2] = system: Encarsia inaron; experiment: Insecticidal activity against Encarsia inaron treated at larval stages assessed as finite rate of increase at 31.25 ppm; assay type: functional, organism-based; settings: Larval stage
[3] = system: Encarsia inaron; experiment: Insecticidal activity against Encarsia inaron treated at adult stages at 2000 ppm assessed as insect longevity (reference value: 8.95 days); assay type: functional
[4] = system: Encarsia inaron; experiment: Insecticidal activity against Encarsia inaron infested cucumber plants assessed as adult parasitoid emergence from parasitised host nymphs treated at larval stages at 400 g ai/L SC measured 10 days post compound treatment (reference value: 79.60 %); assay type: functional, Larval stage
[5] = system: Encarsia inaron; experiment: Insecticidal activity against Encarsia inaron treated at pupal stages at 2000 ppm assessed as insect total fecundity; assay type: functional, organism-based; settings: Pupal stage
[6] = system: Encarsia inaron; experiment: Insecticidal activity against Encarsia inaron treated at adult stages assessed as intrinsic rate of increase at 2000 ppm; assay type: functional, organism-based
[7] = system: Encarsia inaron; experiment: Insecticidal activity against Encarsia inaron treated at pupal stages at 2000 ppm assessed as insect longevity (reference value: 8.7 days); assay type: functional, Pupal stage
[8] = system: Encarsia inaron; experiment: Insecticidal activity against Encarsia inaron treated at adult stages assessed as mean generation time at 2000 ppm; assay type: functional, organism-based
[9] = system: Encarsia inaron; experiment: Insecticidal activity against Encarsia inaron treated at pupal stages assessed as net reproductive rate at 2000 ppm; assay type: functional, organism-based; settings: Pupal stage
[10] = system: Encarsia inaron; experiment: Insecticidal activity against Encarsia inaron treated at adult stages at 2000 ppm assessed as sex ratio (reference value: 0.72 no unit); assay type: functional
[11] = system: Encarsia inaron; experiment: Insecticidal activity against Encarsia inaron treated at adult stages assessed as doubling time at 2000 ppm; assay type: functional, organism-based
[12] = system: Encarsia inaron; experiment: Insecticidal activity against Encarsia inaron infested cucumber plants assessed as adult parasitoid emergence from parasitised host nymphs treated at pupae stages at 400 g ai/L SC measured 10 days post compound treatment (reference value: 79.60 %); assay type: functional
[13] = system: Encarsia inaron; experiment: Insecticidal activity against Encarsia inaron treated at larval stages at 31.25 ppm assessed as insects eggs level per day (reference value: 2.98 egg/day); assay type: functional, Larval stage
[14] = system: Encarsia inaron; experiment: Insecticidal activity against Encarsia inaron adults reared on compound treated freshly cut cucumber leaves assessed as induction if insect mortality measured 48 hr post compound treatment; assay type: functional
[15] = system: Encarsia inaron; experiment: Insecticidal activity against Encarsia inaron treated at pupal stages assessed as finite rate increase at 2000 ppm; assay type: functional, organism-based; settings: Pupal stage
[16] = system: Encarsia inaron; experiment: Insecticidal activity against Encarsia inaron treated at pupal stages at 2000 ppm assessed as sex ratio (reference value: 0.68 no unit); assay type: functional, Pupal stage
[17] = system: Encarsia inaron; experiment: Insecticidal activity against Encarsia inaron treated at adult stages at 2000 ppm assessed as insect total fecundity; assay type: functional, organism-based
[18] = system: Encarsia inaron; experiment: Insecticidal activity against Encarsia inaron treated at adult stages assessed as finite rate of increase at 2000 ppm; assay type: functional, organism-based
[19] = system: Encarsia inaron; experiment: Insecticidal activity against Encarsia inaron treated at larval stages assessed as mean generation time at 31.25 ppm; assay type: functional, organism-based; settings: Larval stage
[20] = system: Encarsia inaron; experiment: Insecticidal activity against Encarsia inaron treated at larval stages at 31.25 ppm assessed as sex ratio (reference value: 0.72 no unit); assay type: functional, Larval stage
[21] = system: Encarsia inaron; experiment: Insecticidal activity against Encarsia inaron treated at adult stages assessed as increase in net reproductive rate at 2000 ppm; assay type: functional, organism-based
[22] = system: Encarsia inaron; experiment: Insecticidal activity against Encarsia inaron treated at larval stages assessed as increase in net reproductive rate at 31.25 ppm; assay type: functional, organism-based; settings: Larval stage
[23] = system: Encarsia inaron; experiment: Insecticidal activity against Encarsia inaron treated at pupal stages at 2000 ppm assessed as insects eggs level per day (reference value: 2.37 egg/day); assay type: functional, Pupal stage
[24] = system: Encarsia inaron; experiment: Insecticidal activity against Encarsia inaron treated at pupal stages assessed as intrinsic rate of increase at 2000 ppm; assay type: functional, organism-based; settings: Pupal stage
[25] = system: Encarsia inaron; experiment: Insecticidal activity against Encarsia inaron treated at pupal stages assessed as mean generation time at 2000 ppm; assay type: functional, organism-based; settings: Pupal stage
[26] = system: Encarsia inaron; experiment: Insecticidal activity against Encarsia inaron treated at adult stages at 2000 ppm assessed as insects eggs level per day (reference value: 2.33 egg/day); assay type: functional
[27] = system: Encarsia inaron; experiment: Insecticidal activity against Encarsia inaron treated at larval stages at 31.25 ppm assessed as insect longevity (reference value: 5.60 days); assay type: functional, Larval stage
[28] = system: Encarsia inaron; experiment: Insecticidal activity against Encarsia inaron treated at larval stages at 31.25 ppm assessed as insect total fecundity; assay type: functional, organism-based; settings: Larval stage
[29] = system: Encarsia inaron; experiment: Insecticidal activity against Encarsia inaron treated at larval stages assessed as increase in net reproductive rate at 62.5 ppm; assay type: functional, organism-based; settings: Larval stage
[30] = system: Encarsia inaron; experiment: Insecticidal activity against Encarsia inaron treated at adult stages assessed as increase in net reproductive rate at 23.37 ppm; assay type: functional, organism-based
[31] = system: Encarsia inaron; experiment: Insecticidal activity against Encarsia inaron treated at larval stages at 62.5 ppm assessed as sex ratio (reference value: 0.72 no unit); assay type: functional, Larval stage
[32] = system: Encarsia inaron; experiment: Insecticidal activity against Encarsia inaron treated at adult stages at 23.37 ppm assessed as insect longevity (reference value: 8.95 days); assay type: functional
[33] = system: Encarsia inaron; experiment: Insecticidal activity against Encarsia inaron treated at larval stages at 62.5 ppm assessed as insects eggs level per day (reference value: 2.98 egg/day); assay type: functional, Larval stage
[34] = system: Encarsia inaron; experiment: Insecticidal activity against Encarsia inaron infested cucumber plants assessed as adult parasitoid emergence from parasitised host nymphs treated at larval stages at 350 g ai/L SC measured 10 days post compound treatment (reference value: 79.60 %); assay type: functional, Larval stage
[35] = system: Encarsia inaron; experiment: Insecticidal activity against Encarsia inaron treated at pupal stages at 62.5 ppm assessed as insect longevity (reference value: 8.7 days); assay type: functional, Pupal stage
[36] = system: Encarsia inaron; experiment: Insecticidal activity against Encarsia inaron treated at pupal stages assessed as mean generation time at 62.5 ppm; assay type: functional, organism-based; settings: Pupal stage
[37] = system: Encarsia inaron; experiment: Insecticidal activity against Encarsia inaron treated at pupal stages assessed as finite rate increase at 62.5 ppm; assay type: functional, organism-based; settings: Pupal stage
[38] = system: Encarsia inaron; experiment: Insecticidal activity against Encarsia inaron treated at adult stages assessed as finite rate of increase at 23.37 ppm; assay type: functional, organism-based
[39] = system: Encarsia inaron; experiment: Insecticidal activity against Encarsia inaron treated at adult stages assessed as doubling time at 23.37 ppm; assay type: functional, organism-based
[40] = system: Encarsia inaron; experiment: Insecticidal activity against Encarsia inaron treated at larval stages assessed as mean generation time at 62.5 ppm; assay type: functional, organism-based; settings: Larval stage
[41] = system: Encarsia inaron; experiment: Insecticidal activity against Encarsia inaron treated at adult stages at 23.37 ppm assessed as insects eggs level per day (reference value: 2.33 egg/day); assay type: functional
[42] = system: Encarsia inaron; experiment: Insecticidal activity against Encarsia inaron treated at pupal stages assessed as intrinsic rate of increase at 62.5 ppm; assay type: functional, organism-based; settings: Pupal stage
[43] = system: Encarsia inaron; experiment: Insecticidal activity against Encarsia inaron treated at pupal stages at 62.5 ppm assessed as insects eggs level per day (reference value: 2.37 egg/day); assay type: functional, Pupal stage
[44] = system: Encarsia inaron; experiment: Insecticidal activity against Encarsia inaron treated at larval stages assessed as intrinsic rate of increase at 62.5 ppm; assay type: functional, organism-based; settings: Larval stage
[45] = system: Encarsia inaron; experiment: Insecticidal activity against Encarsia inaron treated at adult stages assessed as mean generation time at 23.37 ppm; assay type: functional, organism-based
[46] = system: Encarsia inaron; experiment: Insecticidal activity against Encarsia inaron infested cucumber plants assessed as adult parasitoid emergence from parasitised host nymphs treated at pupae stages at 350 g ai/L SC measured 10 days post compound treatment (reference value: 79.60 %); assay type: functional
[47] = system: Encarsia inaron; experiment: Insecticidal activity against Encarsia inaron treated at pupal stages assessed as net reproductive rate at 62.5 ppm; assay type: functional, organism-based; settings: Pupal stage
[48] = system: Encarsia inaron; experiment: Insecticidal activity against Encarsia inaron treated at larval stages assessed as finite rate of increase at 62.5 ppm; assay type: functional, organism-based; settings: Larval stage
[49] = system: Encarsia inaron; experiment: Insecticidal activity against Encarsia inaron treated at pupal stages at 62.5 ppm assessed as insect total fecundity; assay type: functional, organism-based; settings: Pupal stage
[50] = system: Encarsia inaron; experiment: Insecticidal activity against Encarsia inaron treated at pupal stages at 62.5 ppm assessed as sex ratio (reference value: 0.68 no unit); assay type: functional, Pupal stage
[51] = system: Encarsia inaron; experiment: Insecticidal activity against Encarsia inaron treated at adult stages at 23.37 ppm assessed as sex ratio (reference value: 0.72 no unit); assay type: functional
[52] = system: Encarsia inaron; experiment: Insecticidal activity against Encarsia inaron treated at adult stages assessed as intrinsic rate of increase at 23.37 ppm; assay type: functional, organism-based
[53] = system: Encarsia inaron; experiment: Insecticidal activity against Encarsia inaron treated at adult stages at 23.37 ppm assessed as insect total fecundity; assay type: functional, organism-based
[54] = system: Encarsia inaron; experiment: Insecticidal activity against Encarsia inaron treated at larval stages at 62.5 ppm assessed as insect longevity (reference value: 5.60 days); assay type: functional, Larval stage
[55] = system: Encarsia inaron; experiment: Insecticidal activity against Encarsia inaron treated at larval stages at 62.5 ppm assessed as insect total fecundity; assay type: functional, organism-based; settings: Larval stage

CC(C)N1C(=O)N(c2ccccc2)CS/C1=N\C(C)(C)C [BUPROFEZIN]
Activity [1]: inactive
Activity [2]: inactive
Time [3]: 8.9 days
Activity [4]: 2.6%
Activity [5]: inactive
Activity [6]: inactive
Time [7]: 8.5 days
Activity [8]: inactive
Activity [9]: Active
Ratio [10]: 0.44
Activity [11]: inactive
Activity [12]: 63.4%
Activity [13]: 3.55 day⁻¹
LC50 [14]: inactive
Activity [15]: inactive
Ratio [16]: 0.44
Activity [17]: inactive
Activity [18]: inactive
Activity [19]: inactive
Ratio [20]: 0.49
Activity [21]: inactive
Activity [22]: inactive
Activity [23]: 1.24 day⁻¹
Activity [24]: inactive
Activity [25]: Active
Activity [26]: 4.58 day⁻¹
Time [27]: 7.05 days
Activity [28]: inactive

O=[N+]([O-])/N=C1\NCCN1Cc1ccc(Cl)nc1 [IMIDACLOPRID]
Activity [29]: Active
Activity [30]: inactive
Ratio [31]: 0.54
Time [32]: 6.85 days
Activity [33]: 5.44 day⁻¹
Activity [34]: 7%
Time [35]: 6.7 days
Activity [36]: Active
LC10 [14]: 3.3 ppm
LC90 [14]: 13407 ppm
LC50 ([14]; Encarsia inaron, 48 h): 209 µg/mL (≈ 817 µM)
Activity [37]: inactive
Activity [38]: inactive
Activity [39]: inactive
Activity [40]: Active
Activity [41]: 4.75 day⁻¹
Activity [42]: inactive
Activity [43]: 2.77 day⁻¹
Activity [44]: Active
Activity [45]: inactive
Activity [46]: 15%
Activity [47]: Active
Activity [48]: Active
Activity [49]: Active
Ratio [50]: 0.59
Ratio [51]: 0.52
Activity [52]: inactive
Activity [53]: Active
Time [54]: 13.2 days
Activity [55]: Active
